Results published in patent US11365185B2, “Lysophosphatidic acid receptor 1 (LPAR1) inhibitor compounds” (Eli Lilly and Company, priority 2017, dated 2022).
Marks after values point to notes of the source that are not given here.

Legend:
LPAR1 [1] = molecular target: T1, LPAR1 (Homo sapiens (Human), UniProt Q92633); test: LPAR1 Calcium Flux Assay; assay type: cell-based; settings: U937 cells overexpressing human LPAR1, LPA-stimulated calcium, FLIPR
Method: LPAR1 Calcium Flux Assays
(§1) A cDNA encoding the human LPAR1 receptor is synthesized and cloned into pDNA3 expression plasmid. The plasmid is transfected in U937 cells using Lipofectamine 2000 (Invitrogen Corp., USA). Clones stably expressing human LPAR1 are selected using puromycin and identified as cells that show Ca-influx in response to LPA.
U937 cells overexpressing human LPAR1 are seeded at 100,000 cells per well in a 96-well fibronectin (10 ug/ml) coated plate in 60 μl of assay buffer (HBSS containing 20 mM HEPES and 0.2% BSA) and then incubated for 60 minutes. Then 50 μl of a calcium indicator dye (Fluo-4 NW, Molecular Probes) are added to each well and incubation continued for 30 minutes at 37° C. and then 30 minutes at room temperature. 50 μl of test compounds in 4% DMSO are added to the cells and incubation continued at room temperature for 40 minutes. Cells are the stimulated by the addition of 50 μl of 128 nM LPA and intracellular calcium is measured using the FLIPR TETRA (Molecular Devices). IC50 values are determined using “Genedata Screener” analysis tool.
Target sequence in this assay (Q92633 whole entry): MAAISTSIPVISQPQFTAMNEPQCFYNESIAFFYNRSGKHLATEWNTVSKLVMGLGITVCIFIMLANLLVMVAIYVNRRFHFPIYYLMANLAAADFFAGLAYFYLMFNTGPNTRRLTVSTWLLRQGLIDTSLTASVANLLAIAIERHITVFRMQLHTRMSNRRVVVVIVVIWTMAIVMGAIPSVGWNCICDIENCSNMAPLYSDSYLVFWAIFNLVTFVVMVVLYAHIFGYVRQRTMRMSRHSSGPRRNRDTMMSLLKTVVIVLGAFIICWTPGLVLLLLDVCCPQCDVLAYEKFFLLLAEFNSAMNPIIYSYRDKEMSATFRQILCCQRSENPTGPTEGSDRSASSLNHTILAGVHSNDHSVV

human LPAR3 = human LPAR3 (Homo sapiens (Human), UniProt Q9UBY5); test: LPAR3 Calcium Flux Assay; assay type: cell-based; settings: U2OS cells overexpressing human LPAR3, LPA-stimulated calcium, FLIPR
Method: LPAR3 Calcium Flux Assays
as §1, with “LPAR3” for “LPAR1”, “U2OS” for “U937”, “neomycin” for “puromycin”
U2OS cells overexpressing human LPAR3 are seeded at 20,000-40,000 cells per well in a 96-well poly-D-lysine coated plate one day before the assay. Prior to the assay, the cells are washed once with assay buffer (HBSS containing 20 mM HEPES and 0.2% BSA) and then incubated in 50 μl of assay buffer for 60 minutes. Then 50 μl of a calcium indicator dye (Fluo-4 NW, Molecular Probes) are added to each well and incubation is continued for 30 minutes at 37° C. and then 30 minutes at room temperature. 50 μl of test compounds in 4% DMSO are added to the cells and incubation continued at room temperature for 40 minutes. Cells are stimulated by the addition of 50 μl of 128 nM LPA and intracellular calcium is measured using the FLIPR TETRA (Molecular Devices). IC50 values are determined using “Genedata Screener” analysis tool.

LPAR1 [2] = molecular target: T1, LPAR1; test: LPAR1 Membrane Binding Assay; settings: membrane containing LPAR1, radio labeled ligand, SPA
Method: LPAR1 Membrane Binding Assay
The ability of a compound to inhibit binding of a ligand (1-(4′-(4-(((benzyloxy)carbonyl)amino)-3-methylisoxazol-5-yl)-[1,1′-biphenyl]-4-yl)cyclopropane-1-carboxylic acid) to LPAR1 is assessed via a membrane binding assay. Membrane containing LPAR1 was purchased from Cerep (Cat. No. 290312RB). Prior to the assay, membrane is thawed and homogenized for 15 seconds. 50 μl of test compounds and 50 μl of radio labeled ligand are added to the 96-well plates and then 50 of μl membrane (50-400 ug/ml) are added. Next, 50 μl of SPA PVT WGA beads are added (1-5 mg/ml) and the plates are sealed and incubated at room temperate for 5 minutes. Radio activity is measured by Beta Counter and IC50 values are determined using “Genedata Screener” analysis tool.
Target sequence in this assay (Q92633 whole entry, species assumed): as the sequence (Q92633 whole entry) above

[3] = test system: Human hepatic stellate cell line LX-2; test: Calcium Influx of Human Hepatic Stellate Cells (LX-2); assay type: cell-based; settings: LX-2 cells, LPA-stimulated calcium influx
Method: Calcium Influx of Human Hepatic Stellate Cells (LX-2)
Human hepatic stellate cell line LX-2 is purchased from EMD Millpore. LX-2 cells are seeded at 20,000-40,000 cells per well in a 96-well poly-D-lysine coated plate one day before the assay. Prior to the assay, the cells are washed once with assay buffer (HBSS containing 20 mM HEPES and 0.2% BSA) and then incubated in 50 μl of assay buffer for 60 minutes. Then 50 μl of a calcium indicator dye (Fluo-4 NW, Molecular Probes) are added to each well and incubation is continued for 30 minutes at 37° C. and then 30 minutes at room temperature. 50 μl of test compounds in 4% DMSO are added to the cells and incubation is continued at room temperature for 40 minutes. Cells are stimulated by the addition of 50 μl of 128 nM LPA and intracellular calcium is measured using the FLIPR TETRA (Molecular Devices). IC50 values are determined using “Genedata Screener” analysis tool.

[4] = Rodent Pharmacokinetics - Mouse PK; assay type: in vivo, C57 mice; settings: C57, plasma
Method: (§2) The pharmacokinetics of compounds are determined in male Sprague-Dawley rats or C57 mice. The rats are administered a single 1 mg/kg intravenous (IV) and 10 mg/kg oral gavage (PO) dose. The vehicles are 20% Captisol w/v in 25 mM NaPO4 buffer, pH8 and 1% hydroxyethylcellulose/0.25% polysorbate 80 and 0.05% antifoam 1510-US in distilled water for the intravenous and oral dose, respectively. Blood samples are collected at predose (PO only), 0.08 (IV only), 0.25, 0.5, 1, 2, 4, 8, 12 and 24 h after initiation of compound administration. Blood samples are centrifuged to obtain plasma. The plasma samples are analyzed by LC-MS/MS to determine compound concentrations.

[5] = Rodent Pharmacokinetics - Rat PK; assay type: in vivo, male Sprague-Dawley rats; settings: male, Sprague-Dawley, plasma
Method: as §2

Male C57B1/6 mice = test: Diet-Induced Liver Inflammation and Fibrosis; assay type: in vivo; settings: for Peri-sinusoidal Fibrosis Score: vehicle 1.37; for Inflammation Score: vehicle 2.7
Method: Diet-Induced Liver Inflammation and Fibrosis
Male C57B1/6 mice (7-8 weeks old) are given free access to food and water. Mice are fed with high fat, high sucrose and high cholesterol food for 196 days. Then animals will be administrated orally with vehicle or test compounds once daily for 77 days at a volume of 5 ml/kg. Body weight and food intake will be measured twice a week, after two weeks, BW and FI will be measured once a week. At the end of study, animals will be euthanized by CO2 suffocation. Liver samples of the animals are collected and fixed in 10% NBF. Liver samples are prepared after 20 to 24 hours of fixation in 10% NBF and prepared into FFPE blocks. Slide sections of FFPE blocks are processed with H&E and Masson's Trichrome staining. Histopathology interpretation and results will be provided by qualified pathologists. The data are plotted using Graphpad prism and statistical differences between groups determined.

Male C57BL/6J mice = test: Mouse Intravenous LPA-Induced Histamine and Eicosanoids Release; assay type: in vivo; settings: 10 mg/kg orally 2 hours before intravenous LPA; plasma
Method: Mouse Intravenous LPA-Induced Histamine and Eicosanoids Release
A mouse intravenous LPA-induced histamine and eicosanoids release model is utilized to determine the in vivo potency of the compounds of the present invention. Male C57BL/6J mice weighing 20-25 grams are given free access to standard mouse chow and water. LPA is dissolved in 0.1% fatty acid-free bovine serum albumin to generate solution at 2 mg/mL. Test compounds are formulated in 0.5% methyl cellulose plus 0.25% Tween 80 to generate required concentrations one day before the experiment and stored in a refrigerator until use. Animals are dosed orally with test compounds at 10 ml/kg 2 hours before the intravenous LPA dosing (300 ug per mouse) with 30 gauge needles through tail vain. Two hours after LPA dosing the animals are euthanized by CO2 suffocate. Blood will be collected by cardiac puncture. Blood samples are kept on ice for more than 5 minutes and centrifuged at 4000 rpm for 10 minutes at 4° C. to generate supernatant plasma. The plasma histamine, methylimidazol acetic acid and eicosanoids levels are measured by LC/MS.

[6] = 10 mg/kg orally once daily for 77 days
[7] = 30 mg/kg orally once daily for 77 days

human LPAR3, sequence (Q9UBY5 whole entry): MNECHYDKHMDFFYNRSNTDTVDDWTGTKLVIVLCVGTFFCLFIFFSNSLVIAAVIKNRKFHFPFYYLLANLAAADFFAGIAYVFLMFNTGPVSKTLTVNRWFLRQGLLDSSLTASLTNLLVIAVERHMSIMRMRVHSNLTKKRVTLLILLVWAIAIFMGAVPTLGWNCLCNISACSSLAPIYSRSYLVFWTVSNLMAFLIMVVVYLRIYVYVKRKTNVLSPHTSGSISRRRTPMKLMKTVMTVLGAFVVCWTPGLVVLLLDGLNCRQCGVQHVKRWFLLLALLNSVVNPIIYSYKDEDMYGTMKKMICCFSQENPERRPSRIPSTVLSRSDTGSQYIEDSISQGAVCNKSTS

CC(C)c1cncc(Nc2c(-c3ccc(-c4ccc(C5(C(=O)O)CC5)cc4)cn3)cnn2C)n1 [Example 27, 1-[4-[6-[5-[(6-isopropylpyrazin-2-yl)amino]-1-methyl-pyrazol-4-yl]-3-pyridyl]phenyl]cyclopropanecarboxylic Acid]
IC50 (LPAR1 [1]): 20.6 nM | IC50 (human LPAR3): 1980 nM | Ki (LPAR1 [2]): 15.3 nM | IC50 [3]: 8.88 nM | AUC ([4]; 10 mg/kg, PO): 38.4 µM·h | clearance ([4]; intravenous): 3.5 mL/min/kg | Vd ([4]; intravenous, read-out: Vdss): 0.953 L/kg | bioavailability ([4]; oral, 10 mg/kg): 40.8% | AUC ([5]; 10 mg/kg, PO): 80.1 µM·h | clearance ([5]; intravenous, 1 mg/kg): 4.23 mL/min/kg | Vd ([5]; intravenous, 1 mg/kg, read-out: Vdss): 0.799 L/kg | bioavailability ([5]; oral, 10 mg/kg): 93.6% | Peri-sinusoidal Fibrosis Score (Male C57B1/6 mice; [6]): 1.30 | Inflammation Score (Male C57B1/6 mice; [6]): 2.1* | Peri-sinusoidal Fibrosis Score (Male C57B1/6 mice; [7]): 1.07^$ | Inflammation Score (Male C57B1/6 mice; [7]): 2.3^# | % of inhibition, histamine (Male C57BL/6J mice): 89.5 ± 1.6% | % of inhibition, methylimidazoleacetic acid (Male C57BL/6J mice): 100.8 ± 3.4%
